One assay addresses T1, SR-B1 (Homo sapiens, UniProt Q8WTV0).
T1 construct: treatment of SUDHL-4 cells with BLT-1 allowed a measurement of engagement and cholesterol flux through SR-B1; endogenous in cells; host or cells: SUDHL-4 cells
T1 sequence (Q8WTV0 1-552): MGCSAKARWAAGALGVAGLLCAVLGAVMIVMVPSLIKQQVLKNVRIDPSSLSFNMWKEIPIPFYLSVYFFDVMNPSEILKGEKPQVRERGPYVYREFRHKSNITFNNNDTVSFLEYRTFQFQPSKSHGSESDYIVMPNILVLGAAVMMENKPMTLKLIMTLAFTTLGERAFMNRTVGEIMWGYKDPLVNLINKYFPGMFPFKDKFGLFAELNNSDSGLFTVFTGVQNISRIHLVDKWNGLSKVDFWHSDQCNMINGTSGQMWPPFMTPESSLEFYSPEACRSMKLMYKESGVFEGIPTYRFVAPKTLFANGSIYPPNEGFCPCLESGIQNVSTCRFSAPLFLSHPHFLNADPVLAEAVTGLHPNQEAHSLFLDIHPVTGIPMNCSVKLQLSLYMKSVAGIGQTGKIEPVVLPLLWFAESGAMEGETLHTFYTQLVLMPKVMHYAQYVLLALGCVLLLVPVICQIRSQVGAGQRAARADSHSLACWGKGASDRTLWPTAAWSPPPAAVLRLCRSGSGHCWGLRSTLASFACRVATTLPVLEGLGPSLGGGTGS
The experiment in a line: BLT-1 cholesterol flux assays in SUDHL-4 cells. Type of assay: cell-based. The conditions noted are these: SUDHL-4 cells pre-treated with 10 μM BLT-1 for 2 hr. The method, then: Blocker of lipid transport-1 (BLT-1) is a small molecule that binds cysteine-384 in the extracellular loop domain of SR-B1 and inhibits cholesterol flux through SR-B1 without altering the binding of HDL particles to the receptor. Thus, treatment of SUDHL-4 cells with BLT-1 allowed a measurement of engagement and cholesterol flux through SR-B1.
Alterations in cholesterol flux after addition of blocker of lipid transport 1 (BLT-1) were measured as described above; however, cells were pre-treated with 10 μM BLT-1 (2-hexyl-1-cyclopentanone thiosemicarbazone, ChemBridge Corporation) for 2 hr prior to cell treatments. Following cholesterol influx or efflux, the cells were collected in fresh media for measurement of cholesterol flux as previously described. Efflux is expressed as a percentage of the control cells, which were not treated with BLT-1. Influx is expressed as a percentage of the control cells, which were not treated with BLT-1.

A further assay deals with Ramos cells. The assay can be described thus: MTS cell viability assay. Type of assay: cell-based, human. As to conditions: untreated control set to 100%. From the text:
Ramos and SUDHL-4 cell lines are GC-derived B cell lines from BL and DLBCL, respectively. In addition, we chose to study the ABC-like DLBCL line, LY3. Jurkat cells and normal human lymphocytes provided SR-B1 receptor negative controls. In addition, we also chose two primary cells known to express SR-B1 that are critical cell types naturally engaged by HDLs, hepatocytes and macrophages. For each of the cell types, we measured cell viability by an MTS assay following treatment with human serum derived HDL (hHDL) or HDL-NPs. MTS is a colorimetric assay where the magnitude of absorbance is proportional to cell viability. For each treatment, and for each comparison made throughout our studies, we added equivalent doses of hHDL and HDL-NPs based upon the amount of apolipoprotein A-1 (Apo A1). […] Treatment with hHDL or HDL-NPs had no effect in primary hepatocytes or macrophage cells (FIGS. 3C and 3D). […]
For primary human hepatocytes and CD14+ monocytes, 9×10^3 cells/90 μL were seeded in 96-well plates and allowed to attach, and differentiate in the case of the CD14+ monocytes, for 24 hours prior to initiation of treatment. […] The absorbance was read at 490 nm using a microplate reader (MRX Revelation; DYNEX Technologies) and was expressed as a percentage of the control group. […]
Background: Formazan colour is commonly taken as a measure of viable cells.

The record followed here is patent US20150064255A1, “NANOSTRUCTURES FOR TREATING CANCERS AND OTHER CONDITIONS” (Northwestern University, priority 2012, published 2015).

Turning to `CCCCCCC1CCCC1=NNC(N)=S` (centres unmarked) [BLT-1, 2-hexyl-1-cyclopentanone thiosemicarbazone], the “cholesterol flux to hHDL and HDL-NPs” value at SR-B1 is “inhibited cholesterol flux”.
Regarding `CCCCCCCCCCCCCCCC(=O)OC[C@H](COP(=O)(O)OCCNC(=O)CCSSc1ccccn1)OC(=O)CCCCCCCCCCCCCCC` [PDP PE, 1,2-dipalmitoyl-sn-glycero-3-phosphoethanolamine-N-[3-(2-pyridyldithio)propionate]], the “relative absorbance, MTS assay (cell viability)” value in the assay on Ramos cells is “relatively small but statistically significant reduction”.
